Assays:
[1] = target: T1, human TTK (Homo sapiens, UniProt P33981); assay: TTK inhibition assay (indirect ELISA); assay type: biochemical; details: read-out: TTK IC50 Range
T1 construct: amino terminal GST fusion of full length human TTK; purchased Invitrogen
T1 sequence (P33981 1-857): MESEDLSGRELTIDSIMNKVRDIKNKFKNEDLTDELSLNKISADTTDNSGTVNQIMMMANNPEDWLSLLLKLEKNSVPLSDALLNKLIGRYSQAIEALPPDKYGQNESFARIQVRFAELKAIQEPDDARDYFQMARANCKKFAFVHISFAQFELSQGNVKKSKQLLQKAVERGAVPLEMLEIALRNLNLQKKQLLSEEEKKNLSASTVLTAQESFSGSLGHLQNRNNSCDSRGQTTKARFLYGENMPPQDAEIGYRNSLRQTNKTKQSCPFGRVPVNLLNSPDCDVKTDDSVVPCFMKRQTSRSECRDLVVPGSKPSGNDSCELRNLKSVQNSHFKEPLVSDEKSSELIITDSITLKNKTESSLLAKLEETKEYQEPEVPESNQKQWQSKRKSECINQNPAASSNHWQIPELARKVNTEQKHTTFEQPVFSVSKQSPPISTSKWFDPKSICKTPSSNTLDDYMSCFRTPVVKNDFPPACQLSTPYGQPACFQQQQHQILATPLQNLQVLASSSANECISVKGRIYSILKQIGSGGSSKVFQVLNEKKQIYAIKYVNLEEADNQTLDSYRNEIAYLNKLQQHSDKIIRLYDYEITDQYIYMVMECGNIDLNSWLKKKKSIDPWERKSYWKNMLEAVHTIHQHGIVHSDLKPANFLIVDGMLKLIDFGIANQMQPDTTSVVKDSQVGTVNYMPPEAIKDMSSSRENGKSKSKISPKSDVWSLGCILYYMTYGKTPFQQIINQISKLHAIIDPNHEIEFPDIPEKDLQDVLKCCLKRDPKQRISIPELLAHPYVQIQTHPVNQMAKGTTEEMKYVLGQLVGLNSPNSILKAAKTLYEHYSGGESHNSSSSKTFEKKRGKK

[2] = tested on: colon cancer cells (HCT116); assay: Cancer cell line growth inhibition (SRB assay); assay type: cell-based; details: Homo sapiens, HCT-116; read-out: Cancer Cell Line GI50 Range HCT116
[3] = tested on: Breast cancer cells; assay: Cancer cell line growth inhibition (SRB assay); assay type: cell-based; details: Homo sapiens; MDA-MB-468; read-out: Cancer Cell Line GI50 Range MDA-MB-468
[4] = tested on: ovarian cancer cells (PA-1); assay: Cancer cell line growth inhibition (SRB assay); assay type: cell-based; details: Homo sapiens, PA-1; read-out: Cancer Cell Line GI50 Range PA-1

SMILES | IC50 [1] [nM] | GI50 [2] [nM] | GI50 [3] [nM] | GI50 [4] [nM]
CCC(CC)C(NC(=O)c1ccc2[nH]nc(-c3ccc(O[C@H]4C[C@H]5CC[C@@H](C4)N5C4COC4)cc3)c2c1)c1ccccn1 (stereo partly drawn) [Example A341, N-(2-ethyl-1-(pyridin-2-yl)butyl)-3-(4-(((1R,3R,5S)-8-(oxetan-3-yl)-8-azabicyclo[3.2.1]octan-3-yl)oxy)phenyl)-1H-indazole-5-carboxamide] | < 100 | 100 to 500 | 100 to 500 | 100 to 500
CCC[C@H](NC(=O)c1ccc2[nH]nc(-c3ccc(OC4CC5CCC(C4)N5C4COC4)cc3)c2c1)c1ccccc1 (stereo partly drawn) [Example A344, 3-(4-(((1R,3R,5S)-8-(oxetan-3-yl)-8-azabicyclo[3.2.1]octan-3-yl)oxy)phenyl)-N-((S)-1-phenylbutyl)-1H-indazole-5-carboxamide] | < 100 | > 500 | > 500 | 100 to 500
O=C(NC(c1ccccc1)C1CCC1)c1ccc2[nH]nc(-c3ccc(O[C@H]4C[C@H]5CC[C@@H](C4)N5C4COC4)cc3)c2c1 (stereo partly drawn) [Example A345, N-(cyclobutyl(phenyl)methyl)-3-(4-(((1R,3R,5S)-8-(oxetan-3-yl)-8-azabicyclo[3.2.1]octan-3-yl)oxy)phenyl)-1H-indazole-5-carboxamide] | < 100 | 100 to 500 | 100 to 500 | 100 to 500
O=CN1[C@@H]2CC[C@H]1C[C@@H](Oc1ccc(-c3n[nH]c4ccc(C(=O)NC(c5ccccc5)C5CCC5)cc34)cc1)C2 (stereo partly drawn) [Example A346, N-(cyclobutyl(phenyl)methyl)-3-(4-(((1R,3R,5S)-8-formyl-8-azabicyclo[3.2.1]octan-3-yl)oxy)phenyl)-1H-indazole-5-carboxamide] | < 100 | 100 to 500 | 100 to 500 | 100 to 500
O=C(N[C@H](c1ccccn1)C1CCCC1)c1ccc2[nH]nc(-c3ccc(OC4CC5CCC(C4)N5C4COC4)cc3)c2c1 (stereo partly drawn) [Example A347, N-((S)-cyclopentyl(pyridin-2-yl)methyl)-3-(4-(((1R,3R,5S)-8-(oxetan-3-yl)-8-azabicyclo[3.2.1]octan-3-yl)oxy)phenyl)-1H-indazole-5-carboxamide] | < 100 | < 100 | 100 to 500 | 100 to 500
O=CN1C2CCC1CC(Oc1ccc(-c3n[nH]c4ccc(C(=O)N[C@H](c5ccccn5)C5CCCC5)cc34)cc1)C2 (stereo partly drawn) [Example A348, N-((S)-cyclopentyl(pyridin-2-yl)methyl)-3-(4-(((1R,3R,5S)-8-formyl-8-azabicyclo[3.2.1]octan-3-yl)oxy)phenyl)-1H-indazole-5-carboxamide] | < 100 | < 100 | < 100 | < 100
CC(C)[C@H](NC(=O)c1ccc2[nH]nc(-c3ccc(OC4CC5CCC(C4)N5C=O)nc3)c2c1)c1ccccc1Cl (stereo partly drawn) [Example A354, N-((S)-1-(2-chlorophenyl)-2-methylpropyl)-3-(6-(((1R,3R,5S)-8-formyl-8-azabicyclo[3.2.1]octan-3-yl)oxy)pyridin-3-yl)-1H-indazole-5-carboxamide] | < 100 | 100 to 500 | 100 to 500 | 100 to 500
O=C(N[C@H](c1ccsc1)C1CC1)c1ccc2[nH]nc(-c3ccc(N4C5CCC4CC(O)C5)cc3)c2c1 (stereo partly drawn) [Example A365, N-((S)-cyclopropyl(thiophen-3-yl)methyl)-3-(4-((1R,3S,5S)-3-hydroxy-8-azabicyclo[3.2.1]octan-8-yl)phenyl)-1H-indazole-5-carboxamide] | < 100 | < 100 | < 100 | < 100
CC(C)C[C@H](NC(=O)c1ccc2[nH]nc(-c3ccc(N4CCN(C5COC5)CC4)cc3)c2c1)c1ccccc1 [Example A371, (S)-N-(3-methyl-1-phenylbutyl)-3-(4-(4-(oxetan-3-yl)piperazin-1-yl)phenyl)-1H-indazole-5-carboxamide] | < 100 | < 100 | 100 to 500 | < 100
O=C(NC(c1ccccc1)C1CC1)c1ccc2[nH]nc(-c3ccc(O[C@H]4C[C@H]5CC[C@@H](C4)N5)cc3)c2c1 (stereo partly drawn) [Example A375, 3-(4-((1R,3R,5S)-8-azabicyclo[3.2.1]octan-3-yloxy)phenyl)-N-(cyclopropyl(phenyl)methyl)-1H-indazole-5-carboxamide] | < 100 | < 100 | 100 to 500 | < 100
CN1C2CCC1CC(Oc1ccc(-c3n[nH]c4ccc(C(=O)N[C@@H](c5ccccn5)C5CC5)cc34)cc1)C2 (stereo partly drawn) [Example A380, N-((R)-cyclopropyl(pyridin-2-yl)methyl)-3-(4-(((1R,3R,5S)-8-methyl-8-azabicyclo[3.2.1]octan-3-yl)oxy)phenyl)-1H-indazole-5-carboxamide] | < 100 | < 100 | 100 to 500 | < 100
CN1CCC(Oc2ccc(-c3n[nH]c4ccc(C(=O)NC(c5ccccn5)C(C)(C)C)cc34)cc2)CC1 (stereo not drawn) [Example A388] | < 100 | 100 to 500 | > 500 | 100 to 500
CN1C2CCC1CC(Oc1ccc(-c3n[nH]c4ccc(C(=O)NC(c5ccccn5)C5CCCC5)cc34)cc1)C2 (stereo not drawn) [Example A398, N-(cyclopentyl(pyridin-2-yl)methyl)-3-(4-((8-methyl-8-azabicyclo[3.2.1]octan-3-yl)oxy)phenyl)-1H-indazole-5-carboxamide] | < 100 | < 100 | < 100 | < 100
CN1C2CCC1CC(Oc1ccc(-c3n[nH]c4ccc(C(=O)NC(c5ccccc5)C(F)(F)F)cc34)cc1)C2 (stereo not drawn) [Example A400] | < 100 | 100 to 500 | > 500 | 100 to 500
CC(C)[C@H](NC(=O)c1ccc2[nH]nc(-c3ccc(C4CCN(C5COC5)CC4)cc3)c2c1)c1ccccc1Cl [Example A406, (S)-N-(1-(2-chlorophenyl)-2-methylpropyl)-3-(4-(4-(oxelan-3-yl)piperidin-1-yl)phenyl)-1H-indazole-5-carboxamide] | < 100 | > 500 | > 500 | > 500
CN1CCC(Oc2ccc(-c3n[nH]c4ccc(C(=O)NC(c5ccccn5)C5CCCCC5)cc34)cc2)CC1 (stereo not drawn) [Example A409, N-(cyclohexyl(pyridin-2-yl)methyl)-3-(4-((1-methylpiperidin-4-yl)oxy)phenyl)-1H-indazole-5-carboxamide] | < 100 | 100 to 500 | 100 to 500 | 100 to 500
CC(C)[C@@H](NC(=O)c1ccc2[nH]nc(-c3ccc(N4CCN(C5COC5)CC4)cc3)c2c1)c1ccccc1Cl [Example A412, (R)-N-(1-(2-chlorophenyl)-2-methylpropyl)-3-(4-(4-(oxetan-3-yl)piperazin-1-yl)phenyl)-1H-indazole-5-carboxamide] | < 100 | < 100 | 100 to 500 | < 100
CC(C)C[C@H](NC(=O)c1ccc2[nH]nc(-c3ccc(N4C5CCC4COC5)cc3)c2c1)c1ccccc1Cl [Example A413, 3-(4-((1R,5S)-3-oxa-8-azabicyclo[3.2.1]octan-8-yl)phenyl)-N-((S)-(2-chlorophenyl)-3-methylbulyl)-1H-indazole-5-carboxamide] | < 100 | < 100 | 100 to 500 | < 100
